Non-standard residues stand in square brackets, D forms with d. Residues, ends and D or L forms follow the SMILES beside them. *: point of attachment. Myristoyl = CCCCCCCCCCCCCC(=O)*
Columns and labels:
[1] = Stability of conjugates in Simulated Gastric Fluid (SGF); format: in vitro ADME; conditions: simulated gastric fluid pH 1.6 with pepsin, 1 μM, 37° C.
Experimental: Assay 1. Stability of conjugates in Simulated Gastric Fluid (SGF). This assay was used to assess the stability of a conjugate in a stomach. Medium was prepared by dissolving 2 g of sodium chloride in 0.6 L in ultrapure water (MilliQ®, Millipore Sigma, Darmstadt, Germany). The pH was adjusted to 1.6 with 1N hydrochloric acid, and the volume was then adjusted to 1 L with purified water. 60 mg FaSSIF powder (Biorelevant™, London, UK) were dissolved in 500 mL buffer (above). Pepsin was added (0.1 mg/mL) (Millipore Sigma, Darmstadt, Germany), and the solution was stirred. The resulting SGF media were used fresh for each experiment. Test compounds were dissolved in DMSO stock to 1 mM. An aliquot of the DMSO stock solution was removed and diluted in the SGF Media in 15 mL falcon tubes to generate a total compound concentration of 1 μM. A 1 mL aliquot was immediately removed and diluted once with 1 volume of acetonitrile for T0 timepoint. The mixture was sealed and mixed at 37° C. in an incubator. Aliquots (1 mL) were removed at regular intervals and immediately quenched by the addition of 1 volume of acetonitrile. The resulting samples were analyzed by LC/MS to determine degradation rates in SGF.

[2] = Stability of conjugates in Simulated Intestinal Fluid (SIF); format: in vitro ADME; conditions: simulated intestinal fluid pH 6.7 with pancreatin, 1 μM, 37° C.
Experimental: Assay 2. Stability of conjugates in Simulated Intestinal Fluid (SIF). This assay was used to assess the stability of a conjugate in a small intestine. Phosphate buffer was prepared by dissolving 0.42 g of sodium hydroxide pellets and 3.95 g of monobasic sodium phosphate monohydrate and 6.19 g of sodium chloride in ultrapure water (MilliQ®, Millipore Sigma, Darmstadt, Germany). The pH was adjusted to 6.7 using aq. HCl and aq. NaOH, as necessary, and the solution was diluted with ultrapure water to produce 1 L of the pH 6.7 buffer. 112 mg FaSSIF powder (Biorelevant™, London, UK) was dissolved in 50 mL of the pH 6.7 buffer. 2 to 3 mL of the resulting solution were then added to 500 mg pancreatin (Millipore Sigma, Darmstadt, Germany). The resulting mixture was agitated by finger tapping the vessel containing the mixture until milky suspension formed. At this time, the remainder of the 50 mL FaSSiF/pH 6.7 buffer solution was added. The resulting suspension was flipped upside down 10 times to produce SIF, which was used fresh. Test compounds were dissolved in DMSO stock to 1 mM. An aliquot of the DMSO stock solution was removed and diluted in the SIF media in 15 mL falcon tubes to produce a mixture with a tested compound concentration of 1 μM. A 1 mL aliquot was immediately removed and diluted once with 1 volume of acetonitrile for T0 timepoint. The mixture was sealed and agitated at 37° C. in an incubator. Aliquots (1 mL) were removed at regular intervals and immediately quenched by the addition of 1 volume of acetonitrile. The resulting samples were analyzed by LC/MS to determine degradation rates

[3] = In vitro Colonic Material Stability Assay; format: in vitro ADME; conditions: for Assay 3 (% Remaining at 24 h): colonic material slurry, anaerobic, 1 or 10 μM
Experimental: Assay 3 In vitro Colonic Material Stability Assay. This assay was used to assess the stability of an acylated active agent in a large intestine. All experiments were performed in an anaerobic chamber containing 90% nitrogen, 5% hydrogen and 5% carbon dioxide. Colonic material was resuspended as a slurry (15% w/v final concentration) in pre-reduced, anaerobically sterilized dilution blanks (Anaerobe Systems AS-908). The colonic material was then inoculated into 96 well plates containing YCFAC media (Anaerobe Systems AS-680) or other suitable media (6.7 μL slurry into 1 mL total media). Compounds or groups of compounds were added to each individual well to reach a final analyte concentration of 1 or 10 μM, and the material was mixed by pipetting. Sample was removed after set timepoints (0, 120, 240, 480, 1440, 2880 minutes after initiation of the assay), quenched with acetonitrile containing internal standard, and analyzed by LC/MS.

E. coli BL21(DE3) = test: Cell-based assay with ClbP with LCMS, ClbP negative strain; conditions: 10 μM compound, 37° C., 20 h
Experimental: (§1) This example is representative of the methods described in Example 97. ClbP was tested for its ability to activate compounds. […] Each of these three strains was struck out onto an appropriate solid media such as LB agar or BHI agar. The bacteria were then grown aerobically overnight at 37° C.
(§2) A single colony was isolated from the plate and inoculated into 10 mL LB. The liquid cultures were grown overnight aerobically at 37° C. with rocking on a nutator.
(§3) The saturated E. coli cultures were transferred into a biosafety cabinet. 5 μL of each culture was inoculated into fresh LB broth (200 μL total, 1:40 (v/v) dilution of the overnight culture), and the tested compound was added to a final concentration of 10 μM. To establish the native stability of the compound in media alone, the compound was also added to uninoculated media at a final concentration of 10 μM. Each compound was tested in duplicate with each strain or the media-alone incubation. The plate was sealed and incubated aerobically on a nutator at 37° C. for 20 h.
(§4) After 20 h, the reactions were stopped by addition of 200 μL acetonitrile. The contents of each well were mixed, and then the plate was centrifuged (4,000 rpm, 10 min). The plate was diluted serially to a final dilution of 1:100 first with Acetonitrile (10× dilution) and then with (4:1) Mobile Phase A-20 mM ammonium formate+water:Mobile Phase B-Isopropanol:Methanol:Water (4:4:2)+20 mM ammonium formate (10× dilution).
(§5) The amount of each remaining parent compound in each incubation was quantified by LC-MS analysis, with multiple-reaction monitoring targeting transitions specific to each parent compound.
(§6) The amount of compound present in the media-alone condition was normalized to 100%. The amount of parent compound present in the reaction with the ClbP-encoding E. coli (E. coli CFT073 ATCC 700928 and/or E. coli Nissle 1917) was compared to the amount present in the media-alone and expressed as a percent. Likewise, the amount of parent compound present in the reaction with the negative control E. coli BL21(DE3) was compared to the amount present in the media-alone and expressed as a percent.
(§7) In an ideal case, the amount of residual starting material in the reaction(s) with ClbP-encoding E. coli was <25% of the amount in the E. coli BL21(DE3) and media-alone conditions. In an acceptable case, the amount of residual starting material in the reaction(s) with ClbP-encoding E. coli was 25-75% of the amount in the E. coli BL21(DE3) and media-alone conditions. In a non-preferred case, the amount of residual starting material in the reaction(s) with ClbP-encoding E. coli was >75% of the amount in the E. coli BL21(DE3) and media-alone conditions.

[4] = test system: E. coli CFT073 ATCC 700928 and/or E. coli Nissle 1917; test: Cell-based assay with ClbP with LCMS, ClbP positive strain; conditions: ClbP-encoding E. coli, 10 μM compound, 37° C., 20 h
Experimental: as §1, §2, §3, §4, §5, §6, §7

Compound	Assay 1 (SGF) (% Remaining @ 1 hours) [1]	Assay 2 (SIF) (% @ Remaining 4 hours) [2]	Assay 3 (% Remaining at 24 h) [3]	% Remaining in ClbP Negative Relative to Media-Only (E. coli BL21(DE3))	% Remaining in ClbP Positve Relative to Media-Only [4]	Selective delivery to the colon (conclusion from Table 2) ([3]; from SGF, SIF and colonic material stability)
CCCCCCCC(=O)N[C@H](CC(N)=O)C(=O)N[C@@H](C)CCC(=O)O[C@]1(CC)C(=O)OCc2c1cc1n(c2=O)Cc2c-1nc1ccc(O)cc1c2CC [Example 49, (S)-4,11-diethyl-9-hydroxy-3,14-dioxo-3,4,12,14-tetrahydro-1H-pyrano[3′,4′:6,7]indolizino[1,2-b]quinolin-4-yl (S)-4-((R)-4-amino-2-octanamido-4-oxobutanamido)pentanoate]	C (>75% of the tested compound remaining)	C (>75% of the tested compound remaining)	C (>75% of the tested compound remaining)	+ (between 25-75% compound remaining in the 20 μM WT ClbP reaction relative to the no-enzyme control)	++ (<25% compound remaining in the 20 μM WT ClbP reaction relative to the control)	–
CCCCCCCC(=O)N[C@H](CC(N)=O)C(=O)NCCNC(=O)Oc1ccc2c(C)cc(=O)oc2c1 [Example 69, 4-methyl-2-oxo-2H-chromen-7-yl (R)-(2-(4-amino-2-octanamido-4-oxobutanamido)ethyl)carbamate]	C (>75% of the tested compound remaining)	A (<25% of the tested compound remaining)	A (<25% of the tested compound remaining)	–	–	–
CCCCCCCC(=O)N[C@H](CC(N)=O)C(=O)N[C@@H](C)CCC(=O)Oc1ccc(Br)cc1 [Example 47, 4-bromophenyl (S)-4-((R)-4-amino-2-octanamido-4-oxobutanamido)pentanoate]	C (>75% of the tested compound remaining)	A (<25% of the tested compound remaining)	A (<25% of the tested compound remaining)	− (>75% compound remaining in the 20 μM WT ClbP reaction relative to the no-enzyme control)	− (>75% compound remaining in the 20 μM WT ClbP reaction relative to the no-enzyme control)	–
CCCCCCCC(=O)N[C@H](CC(N)=O)C(=O)NCCNC(=O)n1cc(F)c(=O)[nH]c1=O [Example 55, (R)—N1-(2-(5-fluoro-2,4-dioxo-1,2,3,4-tetrahydropyrimidine-1-carboxamido)ethyl)-2-octanamidosuccinamide]	C (>75% of the tested compound remaining)	A (<25% of the tested compound remaining)	A (<25% of the tested compound remaining)	–	–	–
CCCCCCCCCCCCCC(=O)N[C@H](CC(N)=O)C(=O)N[C@H](C(=O)OC)C(C)C [Example 3, Methyl tetradecanoyl-D-asparaginyl-L-valinate] (Myristoyl-[dN]-Val-OMe)	C (>75% of the tested compound remaining)	C (>75% of the tested compound remaining)	B (25-75% of the tested compound remaining)	+ (between 25-75% compound remaining in the 20 μM WT ClbP reaction relative to the no-enzyme control)	+ (between 25-75% compound remaining in the 20 μM WT ClbP reaction relative to the no-enzyme control)	–
CCCCCCCCCCCCCC(=O)N[C@H](CC(N)=O)C(=O)N[C@@H](C)CCC(=O)Oc1ccccc1 [Example 66, phenyl (S)-4-((R)-4-amino-4-oxo-2-tetradecanamidobutanamido)pentanoate]	C (>75% of the tested compound remaining)	B (25-75% of the tested compound remaining)	A (<25% of the tested compound remaining)	++ (<25% compound remaining in the 20 μM WT ClbP reaction relative to the control)	+ (between 25-75% compound remaining in the 20 μM WT ClbP reaction relative to the no-enzyme control)	can be selectively delivered to the colon
